Columns and labels:
[1] = target: T1, C-X-C chemokine receptor type 3 (Homo sapiens, UniProt P49682); test: Antagonist activity at human CXCR3; assay type: functional
T1 sequence (P49682 whole entry): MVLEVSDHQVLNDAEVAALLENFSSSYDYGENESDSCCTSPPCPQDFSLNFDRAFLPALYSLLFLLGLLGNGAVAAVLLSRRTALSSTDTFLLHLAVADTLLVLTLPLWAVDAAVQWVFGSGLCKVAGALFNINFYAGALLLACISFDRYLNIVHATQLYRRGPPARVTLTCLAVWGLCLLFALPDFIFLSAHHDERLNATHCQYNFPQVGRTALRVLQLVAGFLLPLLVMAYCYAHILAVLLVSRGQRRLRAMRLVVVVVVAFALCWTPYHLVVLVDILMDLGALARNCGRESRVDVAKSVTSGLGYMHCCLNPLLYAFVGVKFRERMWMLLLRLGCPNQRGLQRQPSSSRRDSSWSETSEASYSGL

[2] = target: T2, C-X-C chemokine receptor type 3 (Mus musculus, UniProt O88410); test: Antagonist activity at mouse CXCR3; assay type: functional
T2 sequence (O88410 whole entry): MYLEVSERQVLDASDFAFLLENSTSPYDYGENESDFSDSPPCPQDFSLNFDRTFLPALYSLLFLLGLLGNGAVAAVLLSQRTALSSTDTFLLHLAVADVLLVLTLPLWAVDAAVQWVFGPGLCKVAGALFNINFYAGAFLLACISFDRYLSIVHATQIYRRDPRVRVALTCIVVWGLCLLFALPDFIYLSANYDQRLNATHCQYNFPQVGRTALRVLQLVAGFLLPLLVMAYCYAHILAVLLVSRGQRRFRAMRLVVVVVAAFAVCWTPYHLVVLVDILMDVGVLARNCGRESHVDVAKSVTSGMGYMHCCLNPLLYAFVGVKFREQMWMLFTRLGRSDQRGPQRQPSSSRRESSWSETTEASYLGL

[3] = target: T3, C-X-C chemokine receptor type 3 (Rattus norvegicus, UniProt Q9JII9); test: Antagonist activity at rat CXCR3; assay type: functional
T3 sequence (Q9JII9 whole entry): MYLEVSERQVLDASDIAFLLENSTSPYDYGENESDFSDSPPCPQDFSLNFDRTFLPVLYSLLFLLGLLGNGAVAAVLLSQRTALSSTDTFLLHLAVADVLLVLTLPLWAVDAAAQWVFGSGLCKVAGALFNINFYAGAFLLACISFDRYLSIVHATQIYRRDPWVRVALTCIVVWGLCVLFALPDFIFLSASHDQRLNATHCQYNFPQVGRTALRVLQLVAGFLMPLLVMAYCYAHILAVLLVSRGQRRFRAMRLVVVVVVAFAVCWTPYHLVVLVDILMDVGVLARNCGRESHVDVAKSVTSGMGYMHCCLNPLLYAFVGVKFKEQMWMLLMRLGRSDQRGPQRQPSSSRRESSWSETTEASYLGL

[4] = AUC in Sprague-Dawley rat at 10 mg/kg, po after 6 hrs; assay type: ADME, organism-based; parameters: time < 6 hr, dose 10 mg/kg, route oral; details: plasma
[5] = AUC in Sprague-Dawley rat at 5 mg/kg, po after 24 hrs; assay type: ADME, organism-based; parameters: time < 24 hr, dose 5 mg/kg, route oral; details: plasma
[6] = tested on: Rattus norvegicus; test: Volume of distribution at steady state in Sprague-Dawley rat at 5 mg/kg, po; assay type: ADME, organism-based; parameters: dose 5 mg/kg, route oral; details: in vivo
[7] = target: Cytochrome P450 3A4 (Homo sapiens, UniProt P08684); test: Inhibition of CYP3A4; assay type: ADME
[8] = Clearance in Sprague-Dawley rat at 5 mg/kg, po; assay type: ADME, organism-based; parameters: dose 5 mg/kg, route oral; details: in vivo
[9] = target: Cytochrome P450 2D6 (Homo sapiens, UniProt P10635); test: Inhibition of CYP2D6; assay type: ADME
[10] = target: Cytochrome P450 2C19 (Homo sapiens, UniProt P33261); test: Inhibition of CYP2C19; assay type: ADME
[11] = Half life in Sprague-Dawley rat at 5 mg/kg, po; assay type: ADME, organism-based; parameters: dose 5 mg/kg, route oral; details: in vivo

Chain of Cytochrome P450 2C19 (P33261 whole entry): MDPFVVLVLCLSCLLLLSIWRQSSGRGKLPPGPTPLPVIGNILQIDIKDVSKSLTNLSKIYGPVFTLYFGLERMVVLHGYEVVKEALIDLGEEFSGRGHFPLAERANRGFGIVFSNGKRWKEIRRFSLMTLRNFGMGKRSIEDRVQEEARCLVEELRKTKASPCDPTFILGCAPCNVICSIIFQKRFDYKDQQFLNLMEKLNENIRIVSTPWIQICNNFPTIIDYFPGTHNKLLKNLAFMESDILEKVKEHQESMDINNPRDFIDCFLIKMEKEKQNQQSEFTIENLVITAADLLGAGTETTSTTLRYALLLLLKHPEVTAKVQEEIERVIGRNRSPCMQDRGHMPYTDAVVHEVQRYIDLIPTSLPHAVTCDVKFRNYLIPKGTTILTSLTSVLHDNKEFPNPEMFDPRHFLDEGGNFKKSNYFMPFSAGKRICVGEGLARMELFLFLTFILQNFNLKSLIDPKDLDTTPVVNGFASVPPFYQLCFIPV
Chain of Cytochrome P450 3A4 (P08684 whole entry): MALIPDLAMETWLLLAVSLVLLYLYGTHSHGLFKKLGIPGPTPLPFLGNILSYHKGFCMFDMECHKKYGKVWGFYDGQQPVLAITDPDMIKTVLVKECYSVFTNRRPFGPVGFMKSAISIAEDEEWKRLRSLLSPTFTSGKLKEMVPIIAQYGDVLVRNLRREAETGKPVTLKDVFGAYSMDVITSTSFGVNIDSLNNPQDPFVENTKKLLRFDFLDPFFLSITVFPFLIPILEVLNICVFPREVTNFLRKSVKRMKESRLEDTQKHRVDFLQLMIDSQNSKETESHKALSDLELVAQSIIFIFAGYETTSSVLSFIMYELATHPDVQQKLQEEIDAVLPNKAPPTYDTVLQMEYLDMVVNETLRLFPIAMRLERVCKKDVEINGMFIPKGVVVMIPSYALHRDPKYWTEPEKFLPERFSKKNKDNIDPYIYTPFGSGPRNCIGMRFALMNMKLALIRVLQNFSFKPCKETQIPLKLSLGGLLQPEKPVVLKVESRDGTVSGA
Chain of Cytochrome P450 2D6 (P10635 whole entry): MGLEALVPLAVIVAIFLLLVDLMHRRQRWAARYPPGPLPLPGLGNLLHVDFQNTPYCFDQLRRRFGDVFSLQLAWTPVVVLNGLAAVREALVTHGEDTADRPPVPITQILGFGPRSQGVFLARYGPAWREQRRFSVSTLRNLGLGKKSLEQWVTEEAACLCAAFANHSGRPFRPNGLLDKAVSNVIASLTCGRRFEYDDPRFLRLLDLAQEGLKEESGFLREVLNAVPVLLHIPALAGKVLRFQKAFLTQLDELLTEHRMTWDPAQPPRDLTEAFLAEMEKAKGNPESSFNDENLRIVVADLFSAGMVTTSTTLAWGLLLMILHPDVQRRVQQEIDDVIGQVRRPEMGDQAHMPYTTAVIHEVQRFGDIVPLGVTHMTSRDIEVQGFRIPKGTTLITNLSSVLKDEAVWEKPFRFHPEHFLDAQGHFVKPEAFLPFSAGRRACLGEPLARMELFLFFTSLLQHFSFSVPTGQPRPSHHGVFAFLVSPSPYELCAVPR

IC50 [1] | Compound | further results
17 nM | CNC(=O)c1cnc(N2CCN(C3CCN(Cc4ccc(Cl)cc4Cl)CC3)[C@@H](C)C2)c(Cl)c1 | 
63 nM | CNC(=O)c1cnc(N2CCN(C3CCN(Cc4ccc(C(F)(F)F)cc4)CC3)[C@@H](C)C2)c(Cl)c1 | 
18 nM | CNC(=O)c1cnc(N2CCN(C3CCN(Cc4ccc(Cl)cc4F)CC3)[C@@H](C)C2)c(Cl)c1 | 
87 nM | CNC(=O)c1cnc(N2CCN(C3CCN(Cc4ccc(C)cc4)CC3)[C@@H](C)C2)c(Cl)c1 | 
> 10000 nM | CNC(=O)c1cnc(N2CCN(C3CCN(Cc4ccc(S(C)(=O)=O)cc4)CC3)[C@@H](C)C2)c(Cl)c1 | 
7990 nM | CNC(=O)c1cnc(N2CCN(C3CCN(Cc4ccccn4)CC3)[C@@H](C)C2)c(Cl)c1 | 
8060 nM | CNC(=O)c1cnc(N2CCN(C3CCN(Cc4ccc[nH]4)CC3)[C@@H](C)C2)c(Cl)c1 | 
1980 nM | CNC(=O)c1cnc(N2CCN(C3CCN(Cc4cccs4)CC3)[C@@H](C)C2)c(Cl)c1 | 
32 nM | CNC(=O)c1cnc(N2CCN(C3CCN(Cc4ccc(Cl)cc4)CC3)[C@@H](C)C2)c(Cl)c1 | 
8100 nM | CNC(=O)c1cnc(N2CCN(C3CCN(Cc4ccco4)CC3)[C@@H](C)C2)c(Cl)c1 | 
58 nM | CNC(=O)c1cnc(N2CCN(C3CCN(Cc4ccc(F)cc4Cl)CC3)[C@@H](C)C2)c(Cl)c1 | 
210 nM | CNC(=O)c1cnc(N2CCN(C3CCN(C(=O)c4ccc(Cl)cc4)CC3)[C@@H](C)C2)c(Cl)c1 | 
> 10000 nM | CNC(=O)c1cnc(N2CCN(C3CCN(CC(=O)c4ccc(F)cc4)CC3)[C@@H](C)C2)c(Cl)c1 | 
> 10000 nM | CNC(=O)c1cnc(N2CCN(C3CCN(C(=O)c4ccnc5cc(Cl)ccc45)CC3)[C@@H](C)C2)c(Cl)c1 | 
 | O=C(NCc1ccc(F)c(F)c1)c1cnc(N2CCN(C3CCN(Cc4ccc(Cl)cc4)CC3)CC2)c(Cl)c1 | IC50 [2]: 84 nM; IC50 [3]: 97 nM
6 nM | C[C@H]1CN(c2ncc(C(=O)NCc3ccc(F)c(F)c3)cc2Cl)CCN1C1CCN(Cc2ccc(Cl)cc2)CC1 | AUC at 6 h [4]: 0.5 µM·h; IC50 [2]: 6.7 nM; AUC at 24 h [5]: 1.1 µM·h; Vdss [6]: 17.6 L/kg; IC50 [7]: > 10000 nM; IC50 [3]: 9.9 nM; CL/F [8]: 32.6 mL/min/kg; IC50 [9]: > 10000 nM; IC50 [10]: > 10000 nM; half-life [11]: 6.8 h
16 nM | C[C@H]1CN(c2ncc(C(=O)NCc3ccc(Cl)c(Cl)c3)cc2Cl)CCN1C1CCN(Cc2ccc(Cl)cc2)CC1 | 
39 nM | C[C@H]1CN(C2CCN(Cc3ccc(Cl)cc3)CC2)CCN1c1ncc(C(=O)NCc2ccc(Cl)c(Cl)c2)cc1Cl | 
220 nM | C[C@@H]1CN(C2CCN(Cc3ccc(Cl)cc3)CC2)CCN1c1ncc(C(=O)NCc2ccc(Cl)c(Cl)c2)cc1Cl | 
2700 nM | CC1CN(C2CCN(Cc3ccc(Cl)cc3)CC2)CCN1c1ccc(C(=O)NCc2ccc(F)c(F)c2)cn1 (stereo not given) | 
64 nM | CNC(=O)c1cnc(N2CCN(C3CCN(Cc4ccc(Cl)cc4)CC3C)CC2)c(Cl)c1 (stereo not given) | 
31 nM | CNC(=O)c1cnc(N2CCN(C3CCN(Cc4ccc(Cl)cc4)C(C)C3)CC2)c(Cl)c1 (stereo not given) | 
27 nM | CC1(N2CCN(c3ncc(C(=O)NCc4ccc(Cl)c(Cl)c4)cc3Cl)CC2)CCN(Cc2ccc(Cl)cc2)CC1 | 
1400 nM | O=C(NCc1ccc(F)c(F)c1)c1cnc(N2CCN(C3CCN(Cc4ccc(Cl)cc4)CC3)C(=O)C2)c(Cl)c1 | 
7000 nM | CNC(=O)c1cnc(N2CCN(C3CCN(Cc4ccc(Cl)cc4)C(=O)C3)[C@@H](C)C2)c(Cl)c1 (stereo not given in full) | 
12500 nM | CNC(=O)c1cnc(N2CCC(N3CCN(Cc4ccc(Cl)cc4)C[C@@H]3C)CC2)c(Cl)c1 | 
7350 nM | CNC(=O)c1cnc(N2CCC(N3CCN(Cc4ccc(Cl)cc4)C[C@H]3C)CC2)c(Cl)c1 | 
280 nM | CNC(=O)c1cnc(N2CCC(N3CCN(Cc4ccc(Cl)cc4)CC3)C(C)C2)c(Cl)c1 (stereo not given) | 
520 nM | COC(=O)c1cnc(N2CCN(C3CCN(Cc4ccc(Cl)cc4)CC3)[C@@H](C)C2)c(Cl)c1 | 

— ChEMBL document CHEMBL1681635, “II. SAR studies of pyridyl-piperazinyl-piperidine derivatives as CXCR3 chemokine antagonists” (Bioorg Med Chem Lett, 2011)
